Experimental findings from US9676793B2, “Co-crystals of 5-amino-2-oxothiazolo[4,5-d]pyrimidin-3(2H)-yl-5-hydroxymethyl tetrahydrofuran-3-yl acetate and methods for preparing and using the same” (Hoffmann-La Roche Inc., priority 2014, dated 2017) are described below.

Where two headings read alike, the source gives them in different places. Where only a bound is given, the exact number is not on record here.

The nature of data set [1]: Hygroscopicity of co-crystals. In kind it is physicochemical.
Data set [2] is described as follows: BCS classification of co-crystals (aqueous solubility). In kind it is physicochemical. Particulars: for BCS Class (Stahl et al): Table 10.
Data set [3] in a line: Pharmacokinetic study after oral administration. In kind it is in vivo, cynomolgus monkeys. Particulars: monkeys, oral dose of 10 mg/kg, compared with glutaric acid co-crystal. The source says: Studies were undertaken to compare the pharmacokinetics (PK) of the glutaric acid co-crystal to the PK of the tosylate salt of the Formula I compound. A 3% solution of Blanose 7LF PM without preservatives was used to formulate the glutaric acid co-crystal and tosylate salt. Results from a pharmacokinetic study in cynomolgus monkeys indicate that the plasma concentration of the glutaric acid co-crystal was greater than the corresponding tosylate salt following oral administration of each compound.
In this study, each compound was administered orally at a dose of 10 mg/kg to cynomolgus monkeys. Following administration, blood was obtained from each test subject at 0 min, 60 min, 120 min and 180 minutes. After separating the plasma from whole blood an aliquot to each plasma sample was denature by the addition of 70% ethanol. The denatured protein was pelleted by centrifugation and the supernatant was collected and dried using a stream of dry nitrogen gas. The pellet thus obtained was re-constituted in water containing 0.1% formic acid and the re-constituted mixture was analyzed by UPLC using a HSS-T3 (high strength silica) column or an YMC TriartC-18 column. Gradient elution using a mixture of water containing 0.1% HCOOH (mobile phase-A) and acetonitrile containing 0.1% HCOOH (mobile phase-B) was employed for analysis of the pharmacokinetic (PK) samples.

Data set [4] in a line: Solid state stability by UPLC. In kind it is physicochemical. Particulars: for T0 % Area Formula I: free base forms. How it is done:
Solid state stability studies were performed by storing a test sample of the co-crystal at different temperatures and under conditions of different relative humidity for a period of one to three months. Stability was judged by Ultra performance liquid chromatography (UPLC) analysis of the test co-crystals. Percent degradation of API in a test sample of the co-crystal was calculated as follows: Co-crystals in accordance with the invention are fairly stable across the temperature range used in the study. […] Without ascribing to a particular theory, crystallinity may contribute to the stability of inventive co-crystals. Table 7 illustrates data from a stability of a Formula I glutaric acid co-crystal in accordance with the invention across a range of temperatures and in the presence of 75% relative humidity at 40° C. […] Further supporting the hypothesis that crystallinity contributes to increased stability was provided by comparing the amorphous form of the free base of a Formula I compound to the crystalline form of a Formula I compound as illustrated in Table 8.

A short description of data set [5]: Excipient compatibility assay (COMPASS), ternary mixtures. Particulars: glutaric acid co-crystal ternary mixtures. In kind it is physicochemical. The protocol:
Compatibility of the inventive co-crystals with pharmaceutically acceptable excipients was determined by the classic compatibility assay (COMPASS). According to this method, excipient compatibility was investigated by physically mixing the inventive glutaric acid co-crystals with a single pharmaceutical excipient so as to form a binary mixture or by physically mixing the inventive glutaric acid co-crystals with mixtures containing two or more excipients (ternary mixture). Each binary mixture contained 5% by weight of the Formula I compound, whereas the weight percent of the Formula I compound in a ternary mixture was 50%. The test mixtures were stored at 50° C. for 4 weeks or at a temperature of 40° C. and a relative humidity of 75% for 4 weeks.
The inventive co-crystals are compatible with fillers and/or excipients commonly used in the manufacture of pharmaceutical compositions. Table 4 illustrates the results of a compatibility study using ternary mixtures of the inventive glutaric acid co-crystal of the Formula I compound. Table 5 illustrates the results for a similar study using ternary mixtures of the tosylate salt of the Formula I compound.
Ternary mixtures comprising the inventive glutaric acid co-crystal or the tosylate salt of a Formula I compound contained the following excipients in proportions illustrated in Table 6 below.

A further data set concerns HBV. The data set is described as follows: microbe, parasite or virus in culture. The protocol:
Direct inhibition of viral replication was evaluated by monitoring the levels of secreted HBV DNA and the levels of HBV surface antigen (HBsAg) in cultures containing HBV infected HepaRG cells.
After three days incubation, the combined medium was replaced with differentiation medium and the cells were maintained in the differentiation medium for an additional 2 to 4 weeks. The differentiation medium was renewed every 2 to 3 days throughout the incubation period. Differentiated HepaRG cells (HepaRGd) display hepatocyte-like cell islands surrounded by monolayer of biliary-like cells. Prior to HBV infection and compound treatment, HepaRGd cells were seeded into collagen I coated 96-well plates (Gibco, Cat# A11428-03) at 50,000 to 60,000 cells per well. Cells were allowed to recover their differentiated phenotype in 96-well plates for at least 1 week after plating prior to HBV infection.
HBV inoculum was collected from HepG2.2.15 cultured cells, a cell line that supports HBV (genotype D, strain ayw) replication and virion secretion as disclosed in Sells M A., et al., PNAS, 84(4): 1005-1009. HepG2.2.15 cells were maintained in DMEM+GlutaMAX-I (Invitrogen) containing 1× Pen/Strep (Invitrogen), 10% FBS, and 0.25 mg/ml G-418 (Invitrogen) using hyperflasks (Corning) pre-coated with collagen I (BD Biosciences). Upon reaching confluency, HepG2.2.15 culture media was replaced with DMEM+GlutaMAX-I containing 1× Pen-Strep, 2.5% FBS, and 1% DMSO for 3 days and then replaced with DMEM+GlutaMAX-I containing 1× Pen-Strep and 1% DMSO. The 1% DMSO containing media was collected every 3 to 4 days over a two week period and HBV infectious virions and subviral particles were pelleted by ultracentrifugation through a 20% sucrose cushion in a Ti 45 Beckman rotor at 45,000 rpm for 3 hours at 4° C. The pellets were resuspended in WEM at a concentration of 10^8-10^9 genome equivalents (GE) per ml, determined by real time PCR as described below using a genotype D HBV containing plasmid DNA as an internal standard. To evaluate the infectivity of the inoculum, HepaRGd cells in 96-well plates were infected in differentiation medium containing 50 to 200 GE/cell and 4% PEG 8000 (PolyEthylene Glycol 8000, Sigma, Cat# P5413-500G) for 16 hr at 37° C. At the end of the infection, HBV inoculum was removed and cells were washed 3 times with differentiation medium. Differentiation medium was replenished every 2 to 3 days and HBV replication was monitored by measuring secreted HBV DNA, hepatitis B surface (HBsAg) and/or e (HBeAg) antigens.
HBsAg was detected from 50 μL of HBV infected HepaRG supernatants using the HBsAg chemiluminescence immunoassay (CLIA) kit following instructions as recommended by the manufacturer (Autobio Diagnostics Co., Zhengzhou, China). HBV DNA was extracted from 50 μL of HBV infected HepaRGd supernatants using the MagNA Pure 96 DNA and Viral NA Small Volume Kit (Roche, Cat#05 467 497 001). […] All PCR reactions were performed using the ViiA7 Real Time PCR system (Life Technologies).
Both direct and indirect inhibitory activity of HBV replication was measured. […] Aliquots of these reagents were added to independent wells of a 96-well culture plate containing HBV infected HepaRGd cells on day 4 post infection. The final concentration of DMSO in each well was 2%. The HepaRGd cells used in the inhibition study were maintained in differentiation media containing 2% DMSO.

In data set [6] the test system is HBV infected HepaRGd cells. In words: Cell viability by CellTiter-Glo, direct treatment. In kind it is cell-based.
[7] abbreviates: 4 weeks/40° C./ambient conditions (closed container).
The mark [8] stands for this setting: read-out: EC50 against HBV DNA secretion, HBV infected HepaRG cell assay.

Turning to “5-amino-3-(2′-O-acetyl-3′-deoxy-β-D-ribofuranosyl)-3H-thiazolo[4,5]pyrimidine-2-one [glutaric acid co-crystal]”, the Hygroscopicity result is listed as “slightly” in data set [1] (grade in words) and “(±0.3%-m/m)” in data set [1] (mass change ±). For the same compound, the “BCS Class” value in data set [2] (Table 1) was determined as 1. Further, the “BCS Class (Stahl et al)” value in data set [2] was 1.
For `Nc1ccccc1C(=O)O` [2-aminobenzoic acid], the values for the Hygroscopicity result in data set [1] (grade in words) and in data set [1] (mass change ±) were “slightly” and “(±1.8%-m/m)”, respectively.
Take `CC(=O)OC1CC(CO)OC1n1c(=O)sc2cnc(N)nc21.Cc1ccc(S(=O)(=O)O)cc1` (stereo not drawn) [Tosylate Salt, 5-amino-2-oxothiazolo[4,5-d]pyrimidin-3(2H)-yl-5-hydroxymethyl tetrahydrofuran-3-yl acetate]: the “levels of the de-acetylated form of the Formula I compound and biologically active species in plasma” value in data set [3] was “lower levels”.
In the case of `CC(=O)O[C@@H]1C[C@@H](CO)O[C@H]1n1c(=O)sc2cnc(N)nc21` [free base Formula I-amorphous, 5-amino-2-oxothiazolo[4,5-d]pyrimidin-3(2H)-yl-5-hydroxymethyl tetrahydrofuran-3-yl acetate], in data set [4] (4 weeks/40° C./75% r.h.), the “% Area Formula I” value amounted to 86.34 % Area, the “% degradation” value turned out to be 13.57% and the stability grade result is “very”. For the same compound, in data set [4] (setting [7]), the “% Area Formula I” value was found to be 98.89 % Area, the “% degradation” value came to 1.011% and the stability grade entry is given as “(moderately”. The “T0 % Area Formula I” value in data set [4] was 99.90 % Area.
Take `CC(=O)O[C@@H]1C[C@@H](CO)O[C@H]1n1c(=O)sc2cnc(N)nc21` [free base Formula I-crystalline, 5-amino-2-oxothiazolo[4,5-d]pyrimidin-3(2H)-yl-5-hydroxymethyl tetrahydrofuran-3-yl acetate]: the “% Area Formula I” value is listed as 99.740 % area in data set [5] (4 weeks at 40° C./75% RH); 99.670 % area in data set [5] (4 weeks at 50° C.); 99.710 % area in data set [5] (Reference 4 weeks at 2-8° C.); 99.56 % Area in data set [4] (4 weeks/40° C./75% r.h.); 99.52 % Area in data set [4] (setting [7]). Besides, the “% degradation” value is −0.030% in data set [5] (4 weeks at 40° C./75% RH), 0.040% in data set [5] (4 weeks at 50° C.), 0.15% in data set [4] (4 weeks/40° C./75% r.h.) and 0.19% in data set [4] (setting [7]). Besides, the Stability entry in data set [5] (4 weeks at 40° C./75% RH) and in data set [5] (4 weeks at 50° C.) was “Fairly” throughout. The stability grade entry in data set [4] (4 weeks/40° C./75% r.h.) is reported as “stable”; in data set [4] (setting [7]), “(stable)”. In addition, in data set [4], the “T0 % Area Formula I” value was 99.71 % Area.
Regarding `O=C(O)CCC(=O)C(=O)O` [α-ketoglutaric acid], the Hygroscopicity result in data set [1] (grade in words) is given as “slightly”; in data set [1] (mass change ±), “(±0.8%-m/m)”. For the same compound, the “BCS Class (Stahl et al)” value in data set [2] stood at 1.
Consider Fumaric acid, for which the Hygroscopicity result in data set [1] (grade in words) is reported as “slightly”; in data set [1] (mass change ±), “(±0.6%-m/m)”.
The term EC50 denotes the midpoint of the concentration-response curve. IL-6: interleukin 6, cytokine: the EC50 with HBV (setting [8]) worked out at 27 ± 7.3 pM; in the data set on HBV (read-out: EC50 against secretion of HBsAg, HBV infected HepaRG cell assay) it was 260 ± 20 pM.
Usually CC50 stands for the concentration giving 50% cytotoxicity. A lower CC50 goes with harm at low concentration. For the compound “IP-10: IFNγ-induced protein 10, chemokine”, in the data set with HBV (read-out: EC50, HBV replication inhibitory effect, highest concentration tested), the EC50 is above 115000 pM. In data set [6], this compound displayed a CC50 above 115000 pM.
TNF-α: the EC50 in the data set with HBV (setting [8]) amounted to 85 ± 46 pM; with HBV (read-out: EC50 against HBsAg secretion, HBV infected HepaRG cell assay, unit inferred), 320 pM.
